Test results from patent US9579319B2 (Redx Pharma PLC, priority 2013, dated 2017).

What follows are compounds tested on Hedgehog signalling pathway (assay: Gli-reporter NIH3T3 luciferase assay (Hedgehog pathway inhibition)). Details: NIH3T3; Gli-reporter NIH-3T3 cells, recombinant mouse sonic hedgehog, 24 hours, luminescence; read-out: Category (Hedgehog pathway inhibition activity, IC50).
Assay type: cell-based
Experimental: In vitro biological evaluation of compounds of the invention was carried out using the procedure detailed below. The procedure provides activity data for the compounds of the invention against the Hedgehog signalling pathway. The activity is represented as IC50 values in Table 12 below.
The Gli-reporter NIH3T3 cell line (BPS Biosciences) was grown according to the suppliers recommendations. Briefly, cells were maintained in growth medium (DMEM supplemented with 10% calf serum, 1% Penicillin/Streptomycin, and 500 µg/mL of Geneticin) and grown at 37° C., 5% CO2. In order to passage cells they were first rinsed with phosphate buffered saline before the addition of 0.05% Trypsin/EDTA. Fresh growth media was added and the cells were transferred to a centrifuge tube, spun and resuspended at an appropriate cell density.
Gli-reporter NIH-3T3 cells were seeded at 20,000 cells/well into 96 well, poly-D-lysine coated white clear bottomed full area TC plates in growth media (without geneticin). Three wells were left with just media as cell free controls. Cells were then incubated for 24 hours at 37° C. in a 5% CO2.
Serial dilutions of the test compounds were prepared in 100% DMSO. 10 μl of compound or DMSO from each well was pipetted into a sterile, 0.5 ml deep well conical bottomed 96 well plate (intermediate plate). 190 μl of warmed assay media (Opti-MEM supplemented with 0.5% calf serum, 1% non-essential amino acids, 1 mM sodium pyruvate, 10 mM HEPES, 1% penicillin/Streptomycin) was then added to each well and mixed five times at 180 μl by electronic pipette to ensure homogeneity of the compound solution. This 1:20 dilution gives a top concentration of 50 μM in 5% DMSO, 95% assay media. 10 μl was pipetted from each well of the intermediate plate into a second deep well sterile plate. 490 μl of warm assay media was then added to each well and mixed five times at 300 μl. This gives a final top concentration of 1 μM in 0.1% DMSO.
After the 24 hour incubation, media was carefully removed by pipette and replaced with 45 μl of compound dilutions in triplicate. This was incubated for one hour at 37° C. in a 5% CO2. After an hour, 5 μl 10 μg/mL recombinant mouse sonic hedgehog (R&D Systems) was added to each well and the plates were incubated for a further 24 hours at 37° C., 5% CO2.
After 24 hours, plates were removed from the incubator and left to acclimatise to room temperature for 20 minutes. 50 μl of OneGLO assay reagent (Promega) was then added to each well and the plates gently shaken for a further 30 minutes. Plates were then read for luminescence on the EnVision plate reader (PerkinElmer).

IC50 | SMILES
200 to 2000 nM | CN(Cc1ccc(F)cc1C(F)(F)F)C1CCCN(c2nnc(-c3ccnn3C)c3ccccc23)C1 (stereo not shown) [Example 54, N-[[4-fluoro-2-(trifluoromethyl)phenyl]methyl]-N-methyl-1-[4-(2-methylpyrazol-3-yl)phthalazin-1-yl]piperidin-3-amine]
200 to 2000 nM | COc1ccccc1CN(C)C1CCN(c2nnc(-c3ccnn3C)c3ccccc23)CC1 [Example 61, N-[(2-methoxyphenyl)methyl]-N-methyl-1-[4-(2-methylpyrazol-3-yl)phthalazin-1-yl]piperidin-4-amine]
10 to 200 nM | Cn1nccc1-c1nnc(N2CCC(NCc3cccc(F)c3)CC2)c2ccccc12 [Example 73, N-[(3-fluorophenyl)methyl]-1-[4-(2-methylpyrazol-3-yl)phthalazin-1-yl]piperidin-4-amine]
< 10 nM | Cn1nccc1-c1nnc(N2CCC(NC(=O)Nc3ccc(F)cc3F)CC2)c2ccccc12 [Example 8]
< 10 nM | Cc1ccccc1CN(C)C1CCN(c2nnc(-c3ccnn3C)c3ccccc23)CC1 [Example 30, N-methyl-1-[4-(2-methylpyrazol-3-yl)phthalazin-1-yl]-N-(o-tolylmethyl)piperidin-4-amine]
200 to 2000 nM | Cn1nccc1-c1nnc(N2CCC(NCc3ccc(F)cc3)CC2)c2ccccc12 [Example 75, N-[(4-fluorophenyl)methyl]-1-[4-(2-methylpyrazol-3-yl)phthalazin-1-yl]piperidin-4-amine]
10 to 200 nM | Cn1nccc1-c1nnc(N2CCC(NC(=O)OC(C)(C)C)CC2)c2ccccc12 [Example 66, tert-butyl N-[1-[4-(2-methylpyrazol-3-yl)phthalazin-1-yl]-4-piperidyl]carbamate]
10 to 200 nM | CC(C)c1ccccc1CN(C)C1CCN(c2nnc(-c3ccnn3C)c3ccccc23)CC1 [Example 29, N-[(2-isopropylphenyl)methyl]-N-methyl-1-[4-(2-methylpyrazol-3-yl)phthalazin-1-yl]piperidin-4-amine]
200 to 2000 nM | COc1nnc(N2CCC(NCc3ccc(F)cc3C(F)(F)F)CC2)c2ccccc12 [Example 58, N-[[4-fluoro-2-(trifluoromethyl)phenyl]methyl]-1-(4-methoxyphthalazin-1-yl)piperidin-4-amine]
10 to 200 nM | CC(C)c1ccccc1CNC1CCN(c2nnc(-c3ccnn3C)c3ccccc23)CC1 [Example 43, N-[(2-isopropylphenyl)methyl]-1-[4-(2-methylpyrazol-3-yl)phthalazin-1-yl]piperidin-4-amine]
10 to 200 nM | Cn1nccc1-c1nnc(N2CCC(NCc3ccc(Cl)cc3)CC2)c2ccccc12 [Example 35, N-[(4-chlorophenyl)methyl]-1-[4-(2-methylpyrazol-3-yl)phthalazin-1-yl]piperidin-4-amine]
200 to 2000 nM | COc1ccc(CN(C)C2CCN(c3nnc(-c4ccnn4C)c4ccccc34)CC2)cc1 [Example 63, (4-methoxyphenyl)methyl-methyl-[1-[4-(2-methylpyrazol-3-yl)phthalazin-1-yl]-4-piperidyl]ammonium]
< 10 nM | Cn1nccc1-c1nnc(N2CCC(NC(=O)Nc3ccc(OC(F)F)cc3)CC2)c2ccccc12 [Example 26, 1-[4-(difluoromethoxy)phenyl]-3-[1-[4-(2-methylpyrazol-3-yl)phthalazin-1-yl]-4-piperidyl]urea]
10 to 200 nM | Cn1nccc1-c1nnc(N2CCC(NCc3ccc(F)nc3C(F)(F)F)CC2)c2ccccc12 [Example 18, N-[[6-fluoro-2-(trifluoromethyl)-3-pyridyl]methyl]-1-[4-(2-methylpyrazol-3-yl)phthalazin-1-yl]piperidin-4-amine]

Same assay, conditions: NIH3T3; Gli-reporter NIH-3T3 cells, recombinant mouse sonic hedgehog, 24 hours, luminescence; read-out: Gli Luc nM (IC50)

IC50 | SMILES
0.99 nM | Cn1nccc1-c1nnc(N2CCC(NC(=O)Nc3ccc(F)cc3F)CC2)c2ccccc12 [Example 8]
5.12 nM | Cc1c(-c2ccnn2C)nnc(N2CCC(N(C)C(=O)Nc3ccc(F)cc3C(F)(F)F)CC2)c1C [Example 151, 1-[1-[4,5-dimethyl-6-(2-methylpyrazol-3-yl)pyridazin-3-yl]-4-piperidyl]-3-[4-fluoro-2-(trifluoromethyl)phenyl]-1-methyl-urea]

Same assay, conditions: NIH3T3; Gli-reporter NIH-3T3 cells, recombinant mouse sonic hedgehog, 24 hours, luminescence; read-out: Gli luc IC50

IC50 | SMILES
10 to 200 nM | Cn1nccc1-c1nnc(N2CCC(NS(=O)(=O)c3ccc(F)cc3C(F)(F)F)CC2)c2cnccc12 [Example 106, 4-fluoro-N-[1-[1-(2-methylpyrazol-3-yl)pyrido[3,4-d]pyridazin-4-yl]-4-piperidyl]-2-(trifluoromethyl)benzenesulfonamide]
< 10 nM | Cc1c(-c2ccnn2C)nnc(N2CCC(N(C)Cc3ccccc3[N+](=O)[O-])CC2)c1C [Example 81, 1-[4,5-dimethyl-6-(2-methylpyrazol-3-yl)pyridazin-3-yl]-N-methyl-N-[(2-nitrophenyl)methyl]piperidin-4-amine]
10 to 200 nM | CN(Cc1ccc(F)cc1C(F)(F)F)C1CCN(c2nnc(-c3ccnn3C)c3cccnc23)CC1 [Example 135, N-[[4-fluoro-2-(trifluoromethyl)phenyl]methyl]-N-methyl-1-[5-(2-methylpyrazol-3-yl)pyrido[2,3-d]pyridazin-8-yl]piperidin-4-amine]
< 10 nM | CN(Cc1ccc(F)nc1C(F)(F)F)C1CCN(c2nnc(-c3ccnn3C)c3ccccc23)CC1 [Example 160, N-[[6-fluoro-2-(trifluoromethyl)-3-pyridyl]methyl]-N-methyl-1-[4-(2-methylpyrazol-3-yl)phthalazin-1-yl]piperidin-4-amine]
> 200 nM | COC(=O)c1ccc(CNC2CCN(c3nnc(-c4ccnn4C)c4ccccc34)CC2)nc1 [Example 166, methyl 6-[[[1-[4-(2-methylpyrazol-3-yl)phthalazin-1-yl]-4-piperidyl]amino]methyl]pyridine-3-carboxylate]
> 200 nM | CN(Cc1ccc(F)cc1C(F)(F)F)C1CCN(c2nnc(N3CCOCC3)c3ccccc23)CC1 [Example 144, N-[[4-fluoro-2-(trifluoromethyl)phenyl]methyl]-N-methyl-1-(4-morpholinophthalazin-1-yl)piperidin-4-amine]
> 200 nM | CN(Cc1ccncn1)C1CCN(c2nnc(-c3ccnn3C)c3ccccc23)CC1 [Example 86, N-methyl-1-[4-(2-methylpyrazol-3-yl)phthalazin-1-yl]-N-(pyrimidin-4-ylmethyl)piperidin-4-amine]
> 200 nM | Cn1nccc1-c1nnc(N2CCC(NCc3ccc(F)cc3C(F)(F)F)CC2)c2ncccc12 [Example 146, N-[[4-fluoro-2-(trifluoromethyl)phenyl]methyl]-1-[5-(2-methylpyrazol-3-yl)pyrido[2,3-d]pyridazin-8-yl]piperidin-4-amine]
10 to 200 nM | Cc1c(-c2ccncc2)nnc(N2CCC(NCc3ccc(F)cc3C(F)(F)F)CC2)c1C [Example 123, 1-[4,5-dimethyl-6-(4-pyridyl)pyridazin-3-yl]-N-[[4-fluoro-2-(trifluoromethyl)phenyl]methyl]piperidin-4-amine]
< 10 nM | Cc1c(-c2ccnn2C)nnc(N2CCC(N(C)C(=O)Nc3ccc(F)cc3C(F)(F)F)CC2)c1C [Example 151, 1-[1-[4,5-dimethyl-6-(2-methylpyrazol-3-yl)pyridazin-3-yl]-4-piperidyl]-3-[4-fluoro-2-(trifluoromethyl)phenyl]-1-methyl-urea]
> 200 nM | CSc1ccccc1CN(C)C1CCN(c2nnc(-c3ccnn3C)c(C)c2C)CC1 [Example 88, 1-[4,5-dimethyl-6-(2-methylpyrazol-3-yl)pyridazin-3-yl]-N-methyl-N-[(2-methylsulfanylphenyl)methyl]piperidin-4-amine]
10 to 200 nM | COc1ccc(-c2nnc(N3CCC(N(C)Cc4ccc(F)cc4C(F)(F)F)CC3)c(C)c2C)cn1 [Example 110, N-[[4-fluoro-2-(trifluoromethyl)phenyl]methyl]-1-[6-(6-methoxy-3-pyridyl)-4,5-dimethyl-pyridazin-3-yl]-N-methyl-piperidin-4-amine]
10 to 200 nM | Cn1nccc1-c1nnc(N2CCC(NC(=O)Nc3ccc(F)cc3F)CC2)c2cnccc12 [Example 104, 1-(2,4-difluorophenyl)-3-[1-[1-(2-methylpyrazol-3-yl)pyrido[3,4-d]pyridazin-4-yl]-4-piperidyl]urea]
< 10 nM | CN(Cc1cnccc1C(F)(F)F)C1CCN(c2nnc(-c3ccnn3C)c3ccccc23)CC1 [Example 154, N-methyl-1-[4-(2-methylpyrazol-3-yl)phthalazin-1-yl]-N-[[4-(trifluoromethyl)-3-pyridyl]methyl]piperidin-4-amine]
< 10 nM | CN(C(=O)Nc1ccc(F)cc1C(F)(F)F)C1CCN(c2nnc(-c3ccnn3C)c3cccnc23)CC1 [Example 137, 3-[4-fluoro-2-(trifluoromethyl)phenyl]-1-methyl-1-[1-[5-(2-methylpyrazol-3-yl)pyrido[2,3-d]pyridazin-8-yl]-4-piperidyl]urea]
